Measurements published in patent US20150273010A1 (priority 2012, published 2015).

Assays:
Type in all cases: cell-based
HIV-1 PR [1] = target: T1, HIV-1 PR (Human immunodeficiency virus type 1 group M subtype B, UniProt P04585); details: 293T cells, PR/RT cleavage site, added as PI
HIV-1 PR [2] = target: T1, HIV-1 PR
Text: For that purpose, the well-characterized PR/RT and RT/IN HIV-1 boundaries were introduced between the Gal4 domains.

HIV-1 PR [3] = target: T1, HIV-1 PR; details: 10 μM; Gal4/PR SupT1 clones, 1 μg/mL Dox
SupT1 cells = assay: Toxicity of PI to cells during the Gal4/library/PR screen; details: 100.M Indinavir, with PR as part of a fusion, time frame required for the screen
Text: The screen starts with the addition of Dox. In alternative embodiments, cells can be non-fluorescent and not contain a Gal4/library fusion protein at all, or they can express a fusion protein cleaved by HIV-1 PR or cellular proteases. Cells expressing a non-cleaved fusion can be fluorescent (FIG. 10A panel a) as they will be able to activate the E2-Crimson reporter. This population is not of interest in this screen. In alternative embodiments, the non-fluorescent population is sorted and expanded (FIG. 10A panel b). In alternative embodiments, cells are then treated again with Dox, but this time in the presence of PI (100.M Indinavir). We have shown that Indinavir at this concentration, and PR as part of a fusion, are not toxic at least for the time frame required for the screen. Only the subpopulation of cells that express a substrate specific for PR should turn fluorescent and thus be E2-Crimson positive (FIG. 10A panel c). In alternative embodiments, this population is sorted and amplified (FIG. 10A panel d) and used to obtain individual clonal populations by growing individual cells in a 96-well format.

HIV-1 PR [4] = target: T1, HIV-1 PR; details: HEK 293T co-transfected with p55 and PR, 48 hours post-transfection, PI present
Method: Transfected cells were analyzed 48 hours post-transfection with anti-p24 antibody. […] Quantification of the Western blots by IMAGEJ™ (ImageJ™) software. Band intensities are plotted as a ratio of p24 to p55.
We performed a biochemical assay to assess PR activity based on its ability to cleave one of its natural substrates—the p55 Gag poly-protein. For this purpose, p96ZM651gag-opt (from the NIH AIDS reagent program) with humanized codons for optimal expression, was used as substrate. Cells were co-transfected with p55 and PR in the presence or absence of Ritonavir as PI. Cells were then analyzed by western blot 48 hours post-transfection with antibodies against HIV p24, capsid (NIH AIDS reagent program).

[5] = test system: self-inactivating pseudo-typed HIV-1 (sinHIV-GFP); assay: sinHIV-GFP infection screen of SupT1 cells expressing nuclear random peptide library (FACS); details: clones isolated after 12 rounds of infection/selection; compared to the mCherry control
Method: A retroviral random peptide library localized to the nucleus, 3XF(GGS)3 NLS RPL, was used to search for novel inhibitors of HIV-1. In order to screen a population of SupT1 expressing this library, a self-inactivating pseudo-typed HIV-1 carrying a pCMV-GFP expression cassette was utilized. The 3XF(GGS)3 NLS RPL SupT1 cells and cells expressing pBMN.i.mCherry were then screened by infection with sinHIV-GFP. 72 hours post-infection, the cells were sorted by Fluorescence Activated Cell Sorting (FACS) based on the expression of GFP, retaining and expanding GFP-negative cells in culture. […] Following 12 rounds of infection, selection of non-fluorescent cells and amplification of the 3XF(GGS)3 NLS RPL expressing SupT1 cells, eight clones were isolated, and expanded in culture.

In the case of CC(C)CN(C[C@@H](O)[C@H](Cc1ccccc1)NC(=O)O[C@H]1CO[C@H]2OCC[C@H]21)S(=O)(=O)c1ccc(N)cc1 [Darunavir, darunavir], the “reversal of PR-dependent reduction in green fluorescence” value (HIV-1 PR [1]) is reported as “the trend was reversed” and the “inhibition of PR-dependent decrease in E2-C fluorescence” value (HIV-1 PR [2]) is reported as “strongly inhibited”.
In the case of CC(C)(C)NC(=O)[C@@H]1CN(Cc2cccnc2)CCN1C[C@@H](O)C[C@@H](Cc1ccccc1)C(=O)N[C@H]1c2ccccc2C[C@H]1O [Indinavir], the “PR inhibition read as GFP induction” value (HIV-1 PR [3]) is reported as “inhibited PR, allowing robust GFP induction” and the toxicity (SupT1 cells) is reported as “not toxic”.
CC(C)c1nc(CN(C)C(=O)N[C@H](C(=O)N[C@@H](Cc2ccccc2)C[C@H](O)[C@H](Cc2ccccc2)NC(=O)OCc2cncs2)C(C)C)cs1 [Ritonavir] was tested, and the “p55 Gag poly-protein processing by PR” value (HIV-1 PR [4]) was “poly-protein processing is hindered”.
For “Thr Arg Arg Val Ala His Asn Ser Glu (TRRVAHNSE) [Clone 2]”, the “decrease in sinHIV-GFP infection rate” value [5] was “largest decrease”.
“Trp Arg Gly Ala Ala Met Val Arg Gly (WRGAAMVRG) [Clone 6]” was tested, and the “decrease in sinHIV-GFP infection rate” value [5] was “largest decrease”.
